Results as given in patent EP2322149A1, “Methods and compositions for the treatment of ischemia” (Universidad del Pais Vasco, priority 2009, dated 2011).
pIC50: −log10 of the molar value. “And” between values parts separate entries of the source, which are not always exact repeats. Equal values may be shown once. “Also recorded” adds a separate entry of the source.

Columns and labels:
optic nerve [1] = test: Compound action potential of isolated optic nerves perfused with ATP; set-up: species or system C57BL6 mice; conditions: ATP 10 mM, 3h (180 min), 37°C, compared to matched controls
[2] = test system: optic nerve oligodendrocytes; test: Whole-cell recording of ischaemic inward current in cultured oligodendrocytes (chemical ischaemia); assay type: cell-based, Sprague-Dawley rats
Protocol: After 2-4 days in vitro, cultures were composed of at least 98% 04/Ga1C^+ cells. No microglial cells were detected in these cultures. […] Cell death was determined 24h later using calcein-AM (Invitrogen) as previously described (Matute et al., 1997 Proc Natl Acad Sci U S A 94:8830-8835.). Antagonists were present during in vitro ischaemia and during the next 24h incubation period. […] Calcein was used to quantify the number of cells within the reading field. Fluorescence was measured as above and values were plotted as the percentage of DCFDA/calcein red-orange fluorescence versus control. […] Molecular Probes). […] The changes in the membrane potential were calculated as the red (emission at 590)/green (emission at 520) ratio in each condition and results were normalized to control. Whole cell recordings were performed at room temperature and at a holding membrane potential of -70 mV. Extracellular bath solution with a pH of 7.3 contained (in mM): […] Patch clamp pipettes (3-5 MΩ) were filled with internal solution at a pH of 7.3 containing (in mM): CsCI 140, CaC12 2, MgC12 2, HEPES 10, EGTA 11, Na-ATP 2. For electrophysiology monitoring, ischaemia was induced chemically by using the glycolytic blocker iodoacetate (1 mM) and the oxidative phosphorylation inhibitor antimycin (2.5 μM), and omitting glucose because recordings were performed in an open chamber where O2 can diffuse to the cells (Káradóttir et al., 2005). Recordings of ATP currents were performed in divalent cation-free extracellular solutions, obtained by omitting Ca^2+ and Mg^2+, to potentiate P2X-mediated responses (Matute et al., 1997 Proc Natl Acad Sci U S A 94:8830-8835.). […] Molecular Probes, Inc., Eugene, OR) in culture medium for 30 min at 37 °C. Experiments were carried out in a coverslip chamber continuously perfused with a buffer containing 20 mM HEPES, 2 mM CaC12, 10 mM glucose in HBSS at 1 ml/min. The perfusion chamber was mounted on the stage of a Zeiss inverted epifluorescence microscope (Axiovert 35), equipped with a 150 W xenon lamp Polychrome IV (TILL Photonics GMBH) and a Plan Neofluar 40x oil immersion objective (Zeiss, Germany). Cells were visualized with a high resolution digital B/W CCD camera (ORCA; Hamamatsu Photonics Iberica, Barcelona, Spain) and image acquisition and data analysis were carried out using the AquaCosmos software program (Hamamatsu Photonics Iberica). Images were acquired every 30 ms at 37°C and ischaemia was induced as above. […] At the end of the assay, in situ calibration was carried out with the successive addition of […] and 2M Tris/50 mM EGTA, pH 8.5. Data were analyzed with Excel and Prism software.

[3] = test system: optic nerve oligodendrocytes; test: Oxygen and glucose deprivation (OGD) cell death in oligodendrocyte cultures (calcein-AM); assay type: cell-based, Sprague-Dawley rats; conditions: 1h OGD, calcein 24h later; PPADS 100 µM, BBG 50 nM, CNQX 30 µM, APV 100 µM, apyrase 20 U/ml, ARL67156 100 µM, CBX 20 µM, FFA 100 µM, MFQ 1 nM
[4] = test system: AMPA and kainate receptors; test: Glutamate receptor agonist (AMPA, kainate) induced oligodendrocyte death (calcein fluorescence); assay type: cell-based, Sprague-Dawley rats; conditions: AMPA (100 µM) + cyclothiazide (100 µM), or kainate (3 mM) + GYKI 53655 (50 µM); PPADS 100 µM, BBG 50 nM
Protocol: (§1) Primary cultures of oligodendrocytes derived from optic nerves of 12 day-old Sprague-Dawley rats were obtained as previously described (Matute et al., 1997 Proc Natl Acad Sci U S A 94:8830-8835.).Cells were maintained at 37°C and 5% CO2 in a chemically defined medium (Matute et al., 1997 Proc Natl Acad Sci U S A 94:8830-8835.). After 2-4 days in vitro, cultures were composed of at least 98% 04/Ga1C^+ cells. No microglial cells were detected in these cultures. […] Cell death was determined 24h later using calcein-AM (Invitrogen) as previously described (Matute et al., 1997 Proc Natl Acad Sci U S A 94:8830-8835.). Antagonists were present during in vitro ischaemia and during the next 24h incubation period. […] Calcein was used to quantify the number of cells within the reading field. Fluorescence was measured as above and values were plotted as the percentage of DCFDA/calcein red-orange fluorescence versus control. The changes in mitochondrial membrane potential were monitored with 5,5',6,6'-tetrachloro-1,1',3,3'-tetraethylbenzimidazolcarbocyanine iodide (JC-1; Molecular Probes). […] The changes in the membrane potential were calculated as the red (emission at 590)/green (emission at 520) ratio in each condition and results were normalized to control.

P2X3 = target: T1, P2X3 (Homo sapiens, UniProt P56373); conditions: read-out: IC50 P2X3; cited from earlier work
T1 sequence (P56373 1-397): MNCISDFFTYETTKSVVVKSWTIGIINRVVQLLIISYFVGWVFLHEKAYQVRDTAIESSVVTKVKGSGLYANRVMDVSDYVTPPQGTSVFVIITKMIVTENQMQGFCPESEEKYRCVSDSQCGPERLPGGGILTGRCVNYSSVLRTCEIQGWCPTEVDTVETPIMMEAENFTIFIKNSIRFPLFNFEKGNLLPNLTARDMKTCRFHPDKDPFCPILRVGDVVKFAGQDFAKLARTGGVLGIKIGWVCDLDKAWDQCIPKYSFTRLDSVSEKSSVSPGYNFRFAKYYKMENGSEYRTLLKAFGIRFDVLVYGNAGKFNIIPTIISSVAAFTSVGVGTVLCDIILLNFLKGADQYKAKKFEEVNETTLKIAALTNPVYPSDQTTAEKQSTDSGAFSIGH

optic nerves = test: Optic nerve ischaemia (OGD), tissue damage by LDH release; set-up: species or system rats
Protocol: After 1h OGD at 37°C, the medium was replaced with fresh solution containing glucose and equilibrated with 95% O2, 5% CO2 and the nerves were incubated for another 2h at 37°C to simulate reperfusion.

[5] = test system: optic nerve oligodendrocytes; test: Reactive oxygen species (DCFDA) after OGD in oligodendrocyte cultures; assay type: cell-based, Sprague-Dawley rats; conditions: 1 h OGD; BBG 50 nM, PPADS 100 µM
Protocol: as §1

[6] = test system: optic nerve oligodendrocytes; test: Mitochondrial membrane potential (JC-1) after OGD in oligodendrocyte cultures; assay type: cell-based, Sprague-Dawley rats; conditions: 1 h OGD; BBG 50 nM, PPADS 100 µM
Protocol: as §1

optic nerve [7] = conditions: 60 min after 1 h OGD; BBG 50 nM, o-ATP 1 mM
Pannexin hemichannels = conditions: cited from earlier work
P2X4 = target: T2, P2X4 (Homo sapiens, UniProt Q99571); conditions: read-out: IC50 P2X4; cited from earlier work
T2 sequence (Q99571 1-388): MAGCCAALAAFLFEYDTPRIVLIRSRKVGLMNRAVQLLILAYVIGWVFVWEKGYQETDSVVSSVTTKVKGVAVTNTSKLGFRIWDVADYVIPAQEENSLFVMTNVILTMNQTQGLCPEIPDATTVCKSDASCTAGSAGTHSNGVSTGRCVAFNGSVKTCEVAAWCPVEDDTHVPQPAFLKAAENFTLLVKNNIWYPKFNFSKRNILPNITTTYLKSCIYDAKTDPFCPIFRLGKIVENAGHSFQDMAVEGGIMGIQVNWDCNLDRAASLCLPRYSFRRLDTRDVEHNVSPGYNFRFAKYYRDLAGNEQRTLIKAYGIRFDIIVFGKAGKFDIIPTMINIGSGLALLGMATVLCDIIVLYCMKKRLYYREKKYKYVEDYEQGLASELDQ

## Nc1ncnc2c1ncn2[C@@H]1O[C@H](COP(=O)(O)OP(=O)(O)OP(=O)(O)O)[C@@H](O)[C@H]1O [ATP]
Optic nerve [1]
  reduction in CAP area: 50% and 50.1 ± 10.5%

## CCOc1ccc(Nc2ccc(C(=C3C=CC(=[N+](CC)Cc4cccc(S(=O)(=O)[O-])c4)C=C3C)c3ccc(N(CC)Cc4cccc(S(=O)(=O)O)c4)cc3C)cc2)cc1 [BBG, Coomassie brilliant blue G]
[2]; BBG 50 nM, CNQX (30 µM) plus APV (100 µM) applied before the onset of ischemia
  OGD-induced currents: inhibited
[2]; after washing the antagonists out, average over BBG and PPADS, n= 15
  OGD currents after drug application versus OGD currents before drug application: 134 ± 32%
[2]; chemical ischaemia (iodoacetate, antimycin, no glucose), -70 mV, PPADS 100 µM, oATP 1 mM, BBG 50 nM
  ischaemic inward currents: significantly reduced; also recorded: partial block
[3]
  OGD-induced oligodendrocyte cell death: significantly reduced
[4]
  glutamate receptor-induced oligodendrocyte death: did not significantly inhibit
P2X3
  pIC50: < 5.00
Optic nerves; P28 rat optic nerves, 1h OGD + 2h reperfusion, PPADS 1 mM, BBG 50 nM, oATP 1 mM, apyrase 20 U/ml, MFQ 1 µM, CBX 100 µM, FFA 1 mM
  ischaemia-induced damage to optic nerves (LDH release): prevented; also recorded: reduced
Optic nerves; premyelinating (P7), myelinating (P14) and mature (P28) optic nerves
  OGD-induced damage at all developmental stages: decreased; also recorded: protected
[5]
  generation of radical oxygen species (ROS): prevented
[6]
  mitochondrial depolarization: prevented
Optic nerve [7]
  recovery of axon function (CAP area) after the ischaemic insult: significantly improved

## CC1(C)[C@@H](OC(=O)CCC(=O)O)CC[C@]2(C)[C@H]3C(=O)C=C4[C@@H]5C[C@@](C)(C(=O)O)CC[C@]5(C)CC[C@@]4(C)[C@]3(C)CC[C@@H]12 [Carbenoxolone disodium]
Pannexin hemichannels
  pIC50: ~5.30

## O=C(Nc1cccc(C(=O)Nc2ccc(S(=O)(=O)O)c3cc(S(=O)(=O)O)cc(S(=O)(=O)O)c23)c1)Nc1cccc(C(=O)Nc2ccc(S(=O)(=O)O)c3cc(S(=O)(=O)O)cc(S(=O)(=O)O)c23)c1 [NF023]
P2X3
  pIC50: > 4.54
P2X4
  pIC50: < 4.00
